From patent US20240067657A1, “AMIDO-SUBSTITUTED PYRIDYL COMPOUNDS AND METHODS OF USE THEREOF FOR THE TREATMENT OF HERPESVIRUSES” (Merck Sharp & Dohme LLC, priority 2020, published 2024)
pEC50, pIC50: −log10 of the molar value. Where two headings read alike, the source gives them in different places.

Tests used:
[1] = target: T1, varicella zoster virus DNA polymerase (Varicella-zoster virus, UniProt P09252); assay: VZV polymerase assay (AlphaLISA, IC50); type: biochemical; conditions: polymerase assay of Example 190
T1 construct: made in house; host or cells: SF21 insect cells (baculovirus vector)
T1 sequence (P09252 whole entry): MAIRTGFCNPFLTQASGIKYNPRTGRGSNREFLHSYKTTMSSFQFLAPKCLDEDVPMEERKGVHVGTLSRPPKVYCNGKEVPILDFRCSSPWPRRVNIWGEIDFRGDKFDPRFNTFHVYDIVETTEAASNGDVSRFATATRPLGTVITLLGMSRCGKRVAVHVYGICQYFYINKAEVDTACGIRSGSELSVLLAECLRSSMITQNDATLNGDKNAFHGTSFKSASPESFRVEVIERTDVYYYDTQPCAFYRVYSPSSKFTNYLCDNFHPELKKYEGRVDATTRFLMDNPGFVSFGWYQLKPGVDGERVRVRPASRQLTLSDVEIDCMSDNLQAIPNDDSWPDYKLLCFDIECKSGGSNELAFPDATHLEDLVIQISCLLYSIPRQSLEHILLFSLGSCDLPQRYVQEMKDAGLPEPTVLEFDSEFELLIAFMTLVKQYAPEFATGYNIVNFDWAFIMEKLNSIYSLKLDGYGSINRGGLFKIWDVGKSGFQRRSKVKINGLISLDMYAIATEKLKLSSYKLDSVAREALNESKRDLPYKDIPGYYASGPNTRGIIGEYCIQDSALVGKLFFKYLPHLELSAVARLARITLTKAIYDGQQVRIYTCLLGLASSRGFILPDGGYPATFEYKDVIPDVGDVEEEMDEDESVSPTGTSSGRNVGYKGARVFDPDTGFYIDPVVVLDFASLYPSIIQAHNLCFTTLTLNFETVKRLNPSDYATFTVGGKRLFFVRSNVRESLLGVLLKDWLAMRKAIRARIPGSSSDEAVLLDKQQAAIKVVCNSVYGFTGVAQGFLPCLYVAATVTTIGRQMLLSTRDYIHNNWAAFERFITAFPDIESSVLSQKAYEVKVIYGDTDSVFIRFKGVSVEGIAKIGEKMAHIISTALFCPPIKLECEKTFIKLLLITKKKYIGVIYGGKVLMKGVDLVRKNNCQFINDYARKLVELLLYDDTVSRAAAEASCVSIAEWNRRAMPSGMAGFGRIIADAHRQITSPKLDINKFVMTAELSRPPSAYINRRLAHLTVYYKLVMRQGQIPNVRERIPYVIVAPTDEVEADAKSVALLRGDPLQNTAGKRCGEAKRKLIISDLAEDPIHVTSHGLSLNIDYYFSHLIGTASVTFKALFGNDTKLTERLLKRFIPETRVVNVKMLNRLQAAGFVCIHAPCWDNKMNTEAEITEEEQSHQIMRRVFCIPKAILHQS
Method in brief: (§1)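 Baculovirus-expressed polymerase (HCMV 0.2 nM, VZV 0.4 nM final) preincubated 30 min at room temperature with compound in pH 7.5 HEPES buffer; reaction started with 1.6 nM DIG-primer/template and nM dNTPs including biotin-dUTP, run 60 min at 37° C. Incorporation detected by AlphaLISA; IC50 from 4-parameter fit.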

[2] = target: T2, Human cytomegalovirus DNA polymerase (Human cytomegalovirus, UniProt P08546); assay: HCMV polymerase assay (AlphaLISA, IC50); type: biochemical; conditions: polymerase assay of Example 190
T2 construct: made in house; host or cells: SF21 insect cells (baculovirus vector)
T2 sequence (P08546 whole entry): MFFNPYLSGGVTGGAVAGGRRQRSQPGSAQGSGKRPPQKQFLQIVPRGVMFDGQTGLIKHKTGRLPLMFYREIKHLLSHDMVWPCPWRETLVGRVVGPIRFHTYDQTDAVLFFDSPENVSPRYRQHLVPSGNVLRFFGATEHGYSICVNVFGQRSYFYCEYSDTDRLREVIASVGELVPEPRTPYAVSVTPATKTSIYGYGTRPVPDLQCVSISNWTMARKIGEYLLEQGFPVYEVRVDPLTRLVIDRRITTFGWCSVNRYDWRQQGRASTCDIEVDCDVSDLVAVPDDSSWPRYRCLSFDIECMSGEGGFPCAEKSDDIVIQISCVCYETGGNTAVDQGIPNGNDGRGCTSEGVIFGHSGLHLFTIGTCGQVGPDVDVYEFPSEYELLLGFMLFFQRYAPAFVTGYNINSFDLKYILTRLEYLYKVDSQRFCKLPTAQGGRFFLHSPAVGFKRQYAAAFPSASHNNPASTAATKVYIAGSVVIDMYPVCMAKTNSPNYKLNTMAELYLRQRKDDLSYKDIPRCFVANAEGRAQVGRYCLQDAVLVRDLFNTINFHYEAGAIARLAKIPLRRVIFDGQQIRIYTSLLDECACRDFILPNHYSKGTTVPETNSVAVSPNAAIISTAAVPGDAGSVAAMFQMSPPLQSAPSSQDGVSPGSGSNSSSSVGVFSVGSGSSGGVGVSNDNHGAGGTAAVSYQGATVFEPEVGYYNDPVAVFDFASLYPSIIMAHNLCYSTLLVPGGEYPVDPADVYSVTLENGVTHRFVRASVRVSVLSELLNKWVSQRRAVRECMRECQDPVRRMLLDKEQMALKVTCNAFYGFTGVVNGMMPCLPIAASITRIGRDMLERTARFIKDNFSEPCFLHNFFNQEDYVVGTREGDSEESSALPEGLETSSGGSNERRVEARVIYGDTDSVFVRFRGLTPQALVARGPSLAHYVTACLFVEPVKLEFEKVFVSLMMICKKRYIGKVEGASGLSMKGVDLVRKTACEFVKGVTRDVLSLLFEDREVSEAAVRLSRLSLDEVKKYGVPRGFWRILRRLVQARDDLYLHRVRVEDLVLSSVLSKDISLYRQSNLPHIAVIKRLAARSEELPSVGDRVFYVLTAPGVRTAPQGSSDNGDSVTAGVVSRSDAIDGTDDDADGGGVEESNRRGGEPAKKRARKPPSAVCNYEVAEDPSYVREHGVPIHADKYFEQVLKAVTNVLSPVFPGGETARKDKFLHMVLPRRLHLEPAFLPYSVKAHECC
Method in brief: as §1

[3] = test system: HCMV Strain AD169 in MRC-5 cells; assay: Viral qPCR assay HCMV (V0/V1, V2/V3), EC50; type: cell-based; conditions: Human betaherpesvirus 5, AD169, MRC5, viral qPCR assay of Example 191; read-out: HCMV Cell (EC50)
Method in brief: (§2)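 Infected cells added to compounds (10-point 3-fold series), ~72 h at 37 °C, then lysed; viral genomes by TaqMan qPCR against plasmid standard, normalized to PPIA in V0/V1 only, EC50 from 4-parameter fit. HCMV AD169, 0.05-0.1 pfu/cell, ± 50% FBS; VZV 0.04-0.1 pfu/cell; HSV-1 F 0.0005-0.004 pfu/cell.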

[4] = test system: VZV in MeWo or MRC5 cells; assay: Viral qPCR assay VZV (V0/V1, V2/V3), EC50; type: cell-based; conditions: 10%
Method in brief: as §2

[5] = test system: HSV-1 Strain F in Vero or MRC5 cells; assay: Viral qPCR assay HSV-1 (V0/V1, V2/V3), EC50; type: cell-based; conditions: 10%
Method in brief: as §2

[6] = Human alphaherpesvirus 3, MRC5, MRC5 cells, read-out: VZV Cell (EC50) MRC5 10%
[7] = Human alphaherpesvirus 1, MRC5, MRC5 cells, read-out: HSV1 Cell (EC50) MRC5 10%
[8] = Human alphaherpesvirus 3, MeWo, MEWO cells, read-out: VZV Cell (EC50) MEWO 10%
[9] = Human alphaherpesvirus 1, Vero, VERO cells, read-out: HSV1 Cell (EC50) VERO 10%

Compound	pIC50 [1]	pIC50 [2]	pEC50 [3]	pEC50 [4, 6]	pEC50 [5, 7]	pEC50 [4, 8]	pEC50 [5, 9]
O=C(NCc1ccc(Cl)cc1)c1cc(O[C@H]2CCN3C(=O)OC[C@@H]3C2)c(-c2cnn(CCO)c2)cn1 [Compound 34]	8.32	8.16	7.15	–	6.38	6.72	5.91
CC(C)(O)Cn1cc(-c2cnc(C(=O)NCc3ccc(Cl)cc3)cc2O[C@H]2CCN3C(=O)OC[C@@H]3C2)cn1 [Compound 35]	8.12	8.09	6.40	6.36	6.69	–	6.00
O=C(NCc1ccc(Cl)cc1)c1cc(O[C@H]2CCN3C(=O)OC[C@@H]3C2)c(-c2cscn2)cn1 [Compound 37]	8.22	7.80	6.94	6.89	7.00	7.68	7.45
Cn1cnc(-c2cnc(C(=O)NCc3ccc(Cl)cc3)cc2O[C@H]2CCN3C(=O)OC[C@@H]3C2)c1 [Compound 38]	8.19	7.94	7.14	–	≤ 4.10	7.27	6.71
O=C(NCc1ccc(Cl)cc1)c1cc(O[C@H]2CCN3C(=O)OC[C@@H]3C2)c(-c2nccs2)cn1 [Compound 40]	8.03	7.98	7.25	–	–	7.78	7.51
CC(=O)N1CCC(Oc2cc(C(=O)NCc3ccc(Cl)cc3)ncc2-c2cnc(C)s2)CC1 [Compound 43]	7.84	7.60	6.75	6.86	6.97	–	–
CC(=O)N1CCC(Oc2cc(C(=O)NCc3ccc(Cl)cc3)ncc2-c2cn(C)c(C)n2)CC1 [Compound 48]	7.53	7.50	6.43	6.53	6.72	–	–
CC(=O)N1CCC(Oc2cc(C(=O)NCc3ccc(Cl)cc3)ncc2-c2nc(C)ns2)CC1 [Compound 49]	7.75	7.44	6.81	6.10	6.29	–	–
CC(=O)N1CCC(Oc2cc(C(=O)NCc3ccc(Cl)cc3)ncc2-c2nnc(C)s2)CC1 [Compound 54]	7.83	7.21	6.11	6.74	6.62	–	–
CC(=O)N1CCC(Oc2cc(C(=O)NCc3ccc(Cl)cc3)ncc2-c2nnc(C3CC3)s2)CC1 [Compound 57]	7.90	7.06	6.88	6.69	6.96	–	–
CC(=O)N1CCC(Oc2cc(C(=O)NCc3ccc(Cl)cc3)ncc2-c2ccn(C)n2)CC1 [Compound 61]	6.74	6.62	6.31	–	–	7.09	6.97
CC(=O)N1CCC(Oc2cc(C(=O)NCc3ccc(Cl)cc3)ncc2-c2cnn(CCO)c2)CC1 [Compound 62]	7.17	6.65	5.80	–	–	6.79	5.31
CC(=O)N1CCC(Oc2cc(C(=O)NCc3ccc(Cl)cc3)ncc2-c2ncc(C)s2)CC1 [Compound 63]	7.95	7.87	6.61	6.67	6.51	–	7.47
CC(=O)N1CCC(Oc2cc(C(=O)NCc3ccc(Cl)cc3)ncc2-c2cc[nH]n2)CC1 [Compound 64]	7.19	6.79	5.99	–	–	6.36	5.93
CC(=O)N1CCC(Oc2cc(C(=O)NCc3ccc(Cl)cc3)ncc2-c2cnco2)CC1 [Compound 65]	7.93	7.45	6.11	6.14	6.54	–	–
CC(=O)N1CCC(Oc2cc(C(=O)NCc3ccc(Cl)cc3)ncc2-c2cnc(C)o2)CC1 [Compound 66]	7.73	7.32	6.60	6.54	6.62	–	–
CC(=O)N1CCC(Oc2cc(C(=O)NCc3ccc(Cl)cc3)ncc2-c2cnc(C3CC3)o2)CC1 [Compound 67]	7.66	7.30	6.21	6.15	6.18	–	–
Cc1cnc(C(=O)NCc2ccc(Cl)cc2)cc1O[C@H]1CCN2C(=O)OC[C@@H]2C1 [Compound 68]	7.41	7.29	6.22	5.96	6.16	6.90	6.57
CC(=O)N1CCC(Oc2cc(C(=O)NCc3ccc(Cl)cc3)ncc2-c2cn[nH]c2)CC1 [Compound 69]	7.49	6.96	6.17	–	–	6.45	5.95
CC(=O)N1CCC(Oc2cc(C(=O)NCc3ccc(Cl)cc3)ncc2-c2cnn(C(F)F)c2)CC1 [Compound 70]	7.56	6.93	5.91	–	–	6.53	6.37

Molecules with a higher pIC50 [1], results first:

pIC50 [1]	pIC50 [2]	Compound	pEC50 [3]	pEC50 [4, 6]	pEC50 [5, 7]	pEC50 [4, 8]	pEC50 [5, 9]
8.40	7.68	CC(=O)N1CCC(Oc2cc(C(=O)NCc3ccc(Cl)cc3)ncc2-c2ccns2)CC1 [Compound 46]	6.83	6.95	7.04	–	–
8.41	8.30	Cc1cnc(-c2cnc(C(=O)NCc3ccc(Cl)cc3)cc2O[C@H]2CCN3C(=O)OC[C@@H]3C2)s1 [Compound 41]	7.05	7.01	7.41	7.15	7.91
8.42	8.28	Cc1ncc(-c2cnc(C(=O)NCc3ccc(Cl)cc3)cc2O[C@H]2CCN3C(=O)OC[C@@H]3C2)s1 [Compound 42]	7.23	7.10	7.29	7.31	7.39
8.47	7.54	COc1cc(-c2cnc(C(=O)NCc3ccc(Cl)cc3)cc2OC2CCN(C(C)=O)CC2)sn1 [Compound 45]	6.34	6.89	6.87	–	–
8.57	8.20	O=C(NCc1ccc(Cl)cc1)c1cc(O[C@H]2CCN3C(=O)OC[C@@H]3C2)c(-c2cnc(C3CC3)o2)cn1 [Compound 33]	6.92	6.71	6.90	–	–
8.61	8.35	O=C(NCc1ccc(Cl)cc1)c1cc(O[C@H]2CCN3C(=O)OC[C@@H]3C2)c(-c2cnn(C3COC3)c2)cn1 [Compound 36]	6.77	6.76	6.84	–	6.36
8.70	7.58	CC(=O)N1CCC(Oc2cc(C(=O)NCc3ccc(Cl)cc3)ncc2-c2cc(C)ns2)CC1 [Compound 44]	6.74	6.92	6.81	–	–
8.90	7.99	Cc1nsc(-c2cnc(C(=O)NCc3ccc(Cl)cc3)cc2O[C@H]2CCN3C(=O)OC[C@@H]3C2)n1 [Compound 39]	7.06	7.01	7.22	–	–
9.26	8.56	Cc1ncc(-c2cnc(C(=O)NCc3ccc(Cl)cc3)cc2O[C@H]2CCN3C(=O)OC[C@@H]3C2)o1 [Compound 32]	7.11	6.97	7.13	–	–
